# Experimental data as given in patent publication US20230002367A1, “BIFUNCTIONAL COMPOUNDS” (Hoffmann-La Roche Inc., priority 2019, published 2023).
# Biological target: T1, SMARCA2 (Homo sapiens, UniProt P51531)
# T1 construct: endogenous in cells
# Experiment: SMARCA2 HiBiT degradation assay (cellular)
# Assay type: cell-based
# Conditions: for Emax: A549, Emax = amount of residual protein remaining in the cell following compound treatment; for DC50: SMARCA2 HiBiT cells, luminescence readout, 11-point titration from 10 μM, 6 hours or 16 hours, read-out: HiBit A549 SMARCA2 IP
# T1 sequence (P51531 whole entry): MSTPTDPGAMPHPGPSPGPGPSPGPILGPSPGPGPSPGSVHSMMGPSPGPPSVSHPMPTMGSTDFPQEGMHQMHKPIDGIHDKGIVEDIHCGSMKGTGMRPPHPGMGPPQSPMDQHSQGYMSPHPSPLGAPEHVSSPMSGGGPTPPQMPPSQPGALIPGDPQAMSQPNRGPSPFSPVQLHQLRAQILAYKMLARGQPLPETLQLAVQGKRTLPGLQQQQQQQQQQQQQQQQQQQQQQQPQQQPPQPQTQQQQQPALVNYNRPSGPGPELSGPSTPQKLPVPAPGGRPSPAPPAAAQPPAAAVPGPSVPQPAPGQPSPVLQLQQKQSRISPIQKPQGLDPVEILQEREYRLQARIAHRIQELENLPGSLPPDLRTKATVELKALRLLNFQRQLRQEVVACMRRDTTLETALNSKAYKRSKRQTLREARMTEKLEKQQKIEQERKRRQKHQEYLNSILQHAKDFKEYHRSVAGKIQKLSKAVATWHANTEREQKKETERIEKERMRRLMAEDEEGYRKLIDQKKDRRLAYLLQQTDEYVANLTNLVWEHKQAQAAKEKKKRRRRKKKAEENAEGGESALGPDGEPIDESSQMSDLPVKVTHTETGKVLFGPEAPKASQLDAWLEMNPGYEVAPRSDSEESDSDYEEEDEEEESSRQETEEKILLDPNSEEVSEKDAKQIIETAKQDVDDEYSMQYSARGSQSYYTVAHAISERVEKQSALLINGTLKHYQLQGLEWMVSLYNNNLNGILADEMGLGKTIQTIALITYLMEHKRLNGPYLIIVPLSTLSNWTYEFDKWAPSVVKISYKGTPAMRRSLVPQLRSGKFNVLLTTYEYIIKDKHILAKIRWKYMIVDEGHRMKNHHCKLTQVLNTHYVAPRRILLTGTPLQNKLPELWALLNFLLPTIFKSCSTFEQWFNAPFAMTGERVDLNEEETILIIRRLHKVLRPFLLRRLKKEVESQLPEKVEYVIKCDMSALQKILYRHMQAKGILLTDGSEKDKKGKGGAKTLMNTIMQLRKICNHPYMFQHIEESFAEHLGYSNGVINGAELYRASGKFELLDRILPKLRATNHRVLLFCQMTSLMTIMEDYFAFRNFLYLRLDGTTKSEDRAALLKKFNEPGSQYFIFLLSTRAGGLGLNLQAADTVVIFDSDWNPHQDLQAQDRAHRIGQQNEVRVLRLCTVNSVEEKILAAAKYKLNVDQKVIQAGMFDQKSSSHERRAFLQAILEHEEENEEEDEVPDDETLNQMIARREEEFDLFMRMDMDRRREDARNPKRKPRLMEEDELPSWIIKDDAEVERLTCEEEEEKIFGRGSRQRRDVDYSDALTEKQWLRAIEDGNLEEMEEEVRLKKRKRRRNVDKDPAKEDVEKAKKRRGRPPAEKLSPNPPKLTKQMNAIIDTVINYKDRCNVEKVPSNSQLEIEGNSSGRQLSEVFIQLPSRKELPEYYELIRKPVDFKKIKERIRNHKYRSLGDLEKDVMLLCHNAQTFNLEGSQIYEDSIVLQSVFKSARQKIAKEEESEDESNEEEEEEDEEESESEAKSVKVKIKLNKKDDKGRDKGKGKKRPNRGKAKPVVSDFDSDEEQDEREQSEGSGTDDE
Structure (SMILES),Emax [%],DC50 [nM]
"Cc1ncsc1-c1ccc([C@H](C)NC(=O)[C@@H]2C[C@@H](O)CN2C(=O)[C@@H](NC(=O)CCCCCC(=O)N(C)CC(COc2cc(-c3ccccc3O)nnc2N)c2ccccc2)C(C)(C)C)cc1 (mixture of isomers) [Example 21, N′-[3-[3-amino-6-(2-hydroxyphenyl)pyridazin-4-yl]oxy-2-phenyl-propyl]-N′-methyl-N-[rac-(1S)-2,2-dimethyl-1-[rac-(2S,4R)-4-hydroxy-2-[[rac-(1S)-1-[4-(4-methylthiazol-5-yl)phenyl]ethyl]carbamoyl]pyrrolidine-1-carbonyl]propyl]heptanediamide]",19,1010
"Cc1ncsc1-c1ccc([C@H](C)NC(=O)[C@@H]2C[C@@H](O)CN2C(=O)[C@@H](NC(=O)CCCCCCCCCCC(=O)N(C)CC(COc2cc(-c3ccccc3O)nnc2N)c2ccccc2)C(C)(C)C)cc1 (mixture of isomers) [Example 22, N′-[3-[3-amino-6-(2-hydroxyphenyl)pyridazin-4-yl]oxy-2-phenyl-propyl]-N′-methyl-N-[rac-(1S)-2,2-dimethyl-1-[rac-(2S,4R)-4-hydroxy-2-[[rac-(1S)-1-[4-(4-methylthiazol-5-yl)phenyl]ethyl]carbamoyl]pyrrolidine-1-carbonyl]propyl]dodecanediamide]",27,455
"Cc1ncsc1-c1ccc([C@H](C)NC(=O)[C@@H]2C[C@@H](O)CN2C(=O)[C@@H](NC(=O)CCCCCCCCCCCCC(=O)N(C)CC(COc2cc(-c3ccccc3O)nnc2N)c2ccccc2)C(C)(C)C)cc1 (mixture of isomers) [Example 23, N′-[3-[3-amino-6-(2-hydroxyphenyl)pyridazin-4-yl]oxy-2-phenyl-propyl]-N′-methyl-N-[rac-(1S)-2,2-dimethyl-1-[rac-(2S,4R)-4-hydroxy-2-[[rac-(1S)-1-[4-(4-methylthiazol-5-yl)phenyl]ethyl]carbamoyl]pyrrolidine-1-carbonyl]propyl]tetradecanediamide]",38,428
"Cc1ncsc1-c1ccc([C@H](C)NC(=O)[C@@H]2C[C@@H](O)CN2C(=O)[C@@H](NC(=O)CCOCCOCCC(=O)N(C)CC(COc2cc(-c3ccccc3O)nnc2N)c2ccccc2)C(C)(C)C)cc1 (mixture of isomers) [Example 24, rac-(2S,4R)-4-hydroxy-1-[rac-(2S)-2-[3-[2-[3-[[3-[3-amino-6-(2-hydroxyphenyl)pyridazin-4-yl]oxy-2-phenyl-propyl]-methyl-amino]-3-oxo-propoxy]ethoxy]propanoylamino]-3,3-dimethyl-butanoyl]-N-[rac-(1S)-1-[4-(4-methylthiazol-5-yl)phenyl]ethyl]pyrrolidine-2-carboxamide]",42,2850
"Cc1ncsc1-c1ccc([C@H](C)NC(=O)[C@@H]2C[C@@H](O)CN2C(=O)[C@@H](NC(=O)CCCCCCCCC(=O)N(C)CC(COc2cc(-c3ccccc3O)nnc2N)c2ccccc2)C(C)(C)C)cc1 (mixture of isomers) [Example 25, N′-[3-[3-amino-6-(2-hydroxyphenyl)pyridazin-4-yl]oxy-2-phenyl-propyl]-N′-methyl-N-[rac-(1S)-2,2-dimethyl-1-[rac-(2S,4R)-4-hydroxy-2-[[rac-(1S)-1-[4-(4-methylthiazol-5-yl)phenyl]ethyl]carbamoyl]pyrrolidine-1-carbonyl]propyl]decanediamide]",19,348
"Cc1ncsc1-c1ccc([C@H](C)NC(=O)[C@@H]2C[C@@H](O)CN2C(=O)[C@@H](NC(=O)CCCCCC(=O)N(C)CCCN(C)c2ccc(CCOc3cc(-c4ccccc4O)nnc3N)cc2)C(C)(C)C)cc1 (racemic) [Example 26, N′-[3-[4-[2-[3-amino-6-(2-hydroxyphenyl)pyridazin-4-yl]oxyethyl]-N-methyl-anilino]propyl]-N′-methyl-N-[rac-(1S)-2,2-dimethyl-1-[rac-(2S,4R)-4-hydroxy-2-[[rac-(1S)-1-[4-(4-methylthiazol-5-yl)phenyl]ethyl]carbamoyl]pyrrolidine-1-carbonyl]propyl]heptanediamide]",60,1440
"Cc1ncsc1-c1ccc([C@H](C)NC(=O)[C@@H]2C[C@@H](O)CN2C(=O)[C@@H](NC(=O)CCCCCCCCCCC(=O)N(C)CCCN(C)c2ccc(CCOc3cc(-c4ccccc4O)nnc3N)cc2)C(C)(C)C)cc1 (racemic) [Example 27, N′-[3-[4-[2-[3-amino-6-(2-hydroxyphenyl)pyridazin-4-yl]oxyethyl]-N-methyl-anilino]propyl]-N′-methyl-N-[rac-(1S)-2,2-dimethyl-1-[rac-(2S,4R)-4-hydroxy-2-[[rac-(1S)-1-[4-(4-methylthiazol-5-yl)phenyl]ethyl]carbamoyl]pyrrolidine-1-carbonyl]propyl]dodecanediamide]",33,330
"Cc1ncsc1-c1ccc([C@H](C)NC(=O)[C@@H]2C[C@@H](O)CN2C(=O)[C@@H](NC(=O)CCCCCCCCC(=O)N(C)CCCN(C)c2ccc(CCOc3cc(-c4ccccc4O)nnc3N)cc2)C(C)(C)C)cc1 (racemic) [Example 28, N′-[3-[4-[2-[3-amino-6-(2-hydroxyphenyl)pyridazin-4-yl]oxyethyl]-N-methyl-anilino]propyl]-N′-methyl-N-[rac-(1S)-2,2-dimethyl-1-[rac-(2S,4R)-4-hydroxy-2-[[rac-(1S)-1-[4-(4-methylthiazol-5-yl)phenyl]ethyl]carbamoyl]pyrrolidine-1-carbonyl]propyl]decanediamide]",46,515

# Now from value to compound:
Emax [%],DC50 [nM],Structure (SMILES)
20,119,"Cc1ncsc1-c1ccc([C@H](C)NC(=O)[C@@H]2C[C@@H](O)CN2C(=O)[C@@H](NC(=O)CCCCCC(=O)N2CCN(c3ccc(N4CCCC(Oc5cc(-c6ccccc6O)nnc5N)C4)cc3)CC2)C(C)(C)C)cc1 (mixture of isomers) [Example 32, rac-(2S,4R)-4-hydroxy-1-[rac-(2S)-2-[[7-[4-[4-[3-[3-amino-6-(2-hydroxyphenyl)pyridazin-4-yl]oxy-1-piperidyl]phenyl]piperazin-1-yl]-7-oxo-heptanoyl]amino]-3,3-dimethyl-butanoyl]-N-[rac-(1S)-1-[4-(4-methylthiazol-5-yl)phenyl]ethyl]pyrrolidine-2-carboxamide]"
22,73,"Cc1ncsc1-c1ccc([C@H](C)NC(=O)[C@@H]2C[C@@H](O)CN2C(=O)[C@@H](NC(=O)CCCCCCCCC(=O)N2CCN(c3ccc(N4CCCC(Oc5cc(-c6ccccc6O)nnc5N)C4)cc3)CC2)C(C)(C)C)cc1 (mixture of isomers) [Example 33, rac-(2S,4R)-4-hydroxy-1-[rac-(2S)-2-[[10-[4-[4-[3-[3-amino-6-(2-hydroxyphenyl)pyridazin-4-yl]oxy-1-piperidyl]phenyl]piperazin-1-yl]-10-oxo-decanoyl]amino]-3,3-dimethyl-butanoyl]-N-[rac-(1S)-1-[4-(4-methylthiazol-5-yl)phenyl]ethyl]pyrrolidine-2-carboxamide]"
47,1100,"Cc1ncsc1-c1ccc([C@H](C)NC(=O)[C@@H]2C[C@@H](O)CN2C(=O)[C@@H](NC(=O)CCOCCOCCC(=O)N2CCN(c3ccc(N4CCCC(Oc5cc(-c6ccccc6O)nnc5N)C4)cc3)CC2)C(C)(C)C)cc1 (mixture of isomers) [Example 34, rac-(2S,4R)-4-hydroxy-1-[rac-(2S)-2-[3-[2-[3-[4-[4-[3-[3-amino-6-(2-hydroxyphenyl)pyridazin-4-yl]oxy-1-piperidyl]phenyl]piperazin-1-yl]-3-oxo-propoxy]ethoxy]propanoylamino]-3,3-dimethyl-butanoyl]-N-[rac-(1S)-1-[4-(4-methylthiazol-5-yl)phenyl]ethyl]pyrrolidine-2-carboxamide]"
70,589,"Cc1ncsc1-c1ccc([C@H](C)NC(=O)[C@@H]2C[C@@H](O)CN2C(=O)[C@@H](NC(=O)CCOCCC(=O)N2CCN(c3ccc(CN4CCCC(Oc5cc(-c6ccccc6O)nnc5N)C4)cc3)CC2)C(C)(C)C)cc1 (mixture of isomers) [Example 38, rac-(2S,4R)-4-hydroxy-1-[rac-(2S)-2-[3-[3-[4-[4-[[3-[3-amino-6-(2-hydroxyphenyl)pyridazin-4-yl]oxy-1-piperidyl]methyl]phenyl]piperazin-1-yl]-3-oxo-propoxy]propanoylamino]-3,3-dimethyl-butanoyl]-N-[rac-(1S)-1-[4-(4-methylthiazol-5-yl)phenyl]ethyl]pyrrolidine-2-carboxamide]"
48,426,"Cc1ncsc1-c1ccc([C@H](C)NC(=O)[C@@H]2C[C@@H](O)CN2C(=O)[C@@H](NC(=O)CCC(=O)N2CCN(c3ccc(CN4CCCC(Oc5cc(-c6ccccc6O)nnc5N)C4)cc3)CC2)C(C)(C)C)cc1 (mixture of isomers) [Example 39, rac-(2S,4R)-4-hydroxy-1-[rac-(2S)-2-[[4-[4-[4-[[3-[3-amino-6-(2-hydroxyphenyl)pyridazin-4-yl]oxy-1-piperidyl]methyl]phenyl]piperazin-1-yl]-4-oxo-butanoyl]amino]-3,3-dimethyl-butanoyl]-N-[rac-(1S)-1-[4-(4-methylthiazol-5-yl)phenyl]ethyl]pyrrolidine-2-carboxamide]"
46,349,"Cc1ncsc1-c1ccc([C@H](C)NC(=O)[C@@H]2C[C@@H](O)CN2C(=O)[C@@H](NC(=O)CCCCCC(=O)N2CCN(c3ccc(CN4CCCC(Oc5cc(-c6ccccc6O)nnc5N)C4)cc3)CC2)C(C)(C)C)cc1 (mixture of isomers) [Example 40, rac-(2S,4R)-4-hydroxy-1-[rac-(2S)-2-[[7-[4-[4-[[3-[3-amino-6-(2-hydroxyphenyl)pyridazin-4-yl]oxy-1-piperidyl]methyl]phenyl]piperazin-1-yl]-7-oxo-heptanoyl]amino]-3,3-dimethyl-butanoyl]-N-[rac-(1S)-1-[4-(4-methylthiazol-5-yl)phenyl]ethyl]pyrrolidine-2-carboxamide]"
